Assay results published in patent US20140363454A1, “Antibody-Drug Conjugates, Compositions and Methods of Use” (Igenica Biotherapeutics, Inc., priority 2013, published 2014).
Like-named read-outs stand apart in the source and are kept apart here. Where a SMILES comes first, the peptide text is derived from it. [ ]: non-standard residue; d: D form. Dolaproine = CO[C@@H]([C@@H]1CCCN1)[C@@H](C)C(=O)O; Dil = CC[C@H](C)[C@H](NC)[C@@H](CC(=O)O)OC; NMeV = CN[C@H](C(=O)O)C(C)C

Tested on: BT474 (HER2+) cell line
Test: Standard cellular cytotoxicity assay, BT474 (HER2+) cell line
Assay type: cell-based, human
Source text: The cytotoxicity of tubulysins T1 and T2 was compared to the cytotoxicity of MMAF using the BT474 (HER2+) cell line in a standard cellular cytotoxicity assay.

| SMILES | IC50 (Homo sapiens, BT-474) | IC50 |
| --- | --- | --- |
| CC[C@H](C)[C@H](NC(=O)[C@H]1CCCCN1C)C(=O)N(C)[C@H](C[C@@H](OC(C)=O)c1nc(C(=O)O)cs1)C(C)C [Entry T1] | 11 nM |  |
| CC[C@H](C)[C@@H]([C@@H](CC(=O)N1CCC[C@H]1[C@H](OC)[C@@H](C)C(=O)N[C@@H](Cc1ccccc1)C(=O)O)OC)N(C)C(=O)[C@@H](NC(=O)[C@@H](NC)C(C)C)C(C)C [MMAF, monomethylauristatin F] (H-[NMeV]V[Dil][Dolaproine]F-OH) |  | 93 nM |
| CC[C@H](C)[C@H](NC(=O)[C@H]1CCCCN1C)C(=O)N(C)[C@H](C[C@@H](OC(C)=O)c1nc(C(=O)N[C@@H](Cc2ccccc2)C[C@H](C)C(=O)O)cs1)C(C)C [Entry T2] | < 0.1 nM |  |
